Assays:
[1] = log P; type: physicochemical
[2] = test system: TC32 cells; assay: Potency IC50 in TC32 cells and selectivity; type: cell-based; conditions: Homo sapiens, TC-32, Table 2, read-out: IC50 TC32
Protocol: (§1) Exemplary compounds of the presently-disclosed subject matter were assessed for activity, including clearance, potency, and selectivity. Results from studies are compiled in Tables 2-4.
(§2) Desirable clearance was identified at lower values of mL hr^−1kg^−1 (e.g., about ≤10 mL hr^−1 kg^−1), desirable potency was identified at lower values of IC50 (e.g., about ≤10 nM in TC32 cells), and desired selectivity was identified at higher ratios of IC50 in PC3/IC50 in TC32 (e.g. about >10).

[3] = test system: PC3; assay: IC50 in PC3 cells; type: cell-based; conditions: Homo sapiens, PC-3, read-out: IC50 PC2, Table 2; head prints PC2, text PC3
Protocol: as §1, §2

Row | Compound | log P ([1]; Table 2) | other results
1 | COc1cc2cc(C(=O)NCCON=C([C@@H](O)[C@@H](C)O)[C@@H](OC)[C@@H]3Cc4cc5cc(O[C@H]6C[C@@H](O[C@H]7C[C@@H](O)[C@H](O)[C@@H](C)O7)[C@H](O)[C@@H](C)O6)c(C)c(O)c5c(O)c4C(=O)[C@H]3O[C@H]3C[C@@H](O[C@H]4C[C@@H](O[C@H]5C[C@](C)(O)[C@H](O)[C@@H](C)O5)[C@@H](O)[C@@H](C)O4)[C@H](O)[C@@H](C)O3)[nH]c2cc1OC [YL-B158] | – | logP ([1]; Table 2): 1.28; IC50 [2]: 35.6 nM; IC50 [3]: 300 nM
2 | COC(C(=NOCC(=O)Nc1cccc2cnccc12)C(O)C(C)O)C1Cc2cc3cc(OC4CC(OC5CC(O)C(O)C(C)O5)C(O)C(C)O4)c(C)c(O)c3c(O)c2C(=O)C1OC1CC(OC2CC(OC3CC(C)(O)C(O)C(C)O3)C(O)C(C)O2)C(O)C(C)O1 (centres unmarked) [YL-B160] | – | logP ([1]; Table 2): 1.3; IC50 [2]: 86.1 nM; IC50 [3]: 1130 nM
3 | CO[C@H](C(=NOC[C@@H](Cc1c[nH]c2ccccc12)NC(=O)c1ccc2scnc2c1)[C@@H](O)[C@@H](C)O)[C@@H]1Cc2cc3cc(O[C@H]4C[C@@H](O[C@H]5C[C@@H](O)[C@H](O)[C@@H](C)O5)[C@H](O)[C@@H](C)O4)c(C)c(O)c3c(O)c2C(=O)[C@H]1O[C@H]1C[C@@H](O[C@H]2C[C@@H](O[C@H]3C[C@](C)(O)[C@H](O)[C@@H](C)O3)[C@@H](O)[C@@H](C)O2)[C@H](O)[C@@H](C)O1 [YL-C53] | 3.26 | –
4 | COC(C(=NOCCNC(=O)c1c(-c2ccc(Cl)cc2)c2cc(Cl)ccc2n1CC(C)C)C(O)C(C)O)C1Cc2cc3cc(OC4CC(OC5CC(O)C(O)C(C)O5)C(O)C(C)O4)c(C)c(O)c3c(O)c2C(=O)C1OC1CC(OC2CC(OC3CC(C)(O)C(O)C(C)O3)C(O)C(C)O2)C(O)C(C)O1 (centres unmarked) [YL-C100] | 6.21 | –
5 | COC(C(=NOCC(Cc1c[nH]c2ccccc12)NC(=O)c1ccc2scnc2c1)C(O)C(C)O)C1Cc2cc3cc(OC4CC(OC5CC(O)C(O)C(C)O5)C(O)C(C)O4)c(C)c(O)c3c(O)c2C(=O)C1OC1CC(OC2CC(OC3CC(C)(O)C(O)C(C)O3)C(O)C(C)O2)C(O)C(C)O1 (centres unmarked) [YL-C55] | 3.26 | –
6 | COC(C(=NOCC(Cc1c[nH]c2ccccc12)NC(=O)c1cc2cc(Cl)ccc2[nH]1)C(O)C(C)O)C1Cc2cc3cc(OC4CC(OC5CC(O)C(O)C(C)O5)C(O)C(C)O4)c(C)c(O)c3c(O)c2C(=O)C1OC1CC(OC2CC(OC3CC(C)(O)C(O)C(C)O3)C(O)C(C)O2)C(O)C(C)O1 (centres unmarked) [YL-C54] | 4.34 | –
7 | CO[C@H](C(=NOCCNC(=O)c1c(-c2ccc(Cl)cc2)c2cc(Cl)ccc2n1C)[C@@H](O)[C@@H](C)O)[C@@H]1Cc2cc3cc(O[C@H]4C[C@@H](O[C@H]5C[C@@H](O)[C@H](O)[C@@H](C)O5)[C@H](O)[C@@H](C)O4)c(C)c(O)c3c(O)c2C(=O)[C@H]1O[C@H]1C[C@@H](O[C@H]2C[C@@H](O[C@H]3C[C@](C)(O)[C@H](O)[C@@H](C)O3)[C@@H](O)[C@@H](C)O2)[C@H](O)[C@@H](C)O1 [YL-C98] | 4.6 | –
8 | CO[C@H](C(=NOCC(=O)N[C@@H](Cc1c[nH]c2ccccc12)C(=O)Nc1ccc2scnc2c1)[C@@H](O)[C@@H](C)O)[C@@H]1Cc2cc3cc(O[C@H]4C[C@@H](O[C@H]5C[C@@H](O)[C@H](O)[C@@H](C)O5)[C@H](O)[C@@H](C)O4)c(C)c(O)c3c(O)c2C(=O)[C@H]1O[C@H]1C[C@@H](O[C@H]2C[C@@H](O[C@H]3C[C@](C)(O)[C@H](O)[C@@H](C)O3)[C@@H](O)[C@@H](C)O2)[C@H](O)[C@@H](C)O1 [YL-C39] | 2.56 | –
9 | COC(C(=NOCCNC(=O)c1[nH]c2ccc(Cl)cc2c1-c1ccc(F)c(Cl)c1)C(O)C(C)O)C1Cc2cc3cc(OC4CC(OC5CC(O)C(O)C(C)O5)C(O)C(C)O4)c(C)c(O)c3c(O)c2C(=O)C1OC1CC(OC2CC(OC3CC(C)(O)C(O)C(C)O3)C(O)C(C)O2)C(O)C(C)O1 (centres unmarked) [YL-C116] | 4.19 | log P ([1]; Table 3): 4.19

Reference: patent publication US20260297121A1, “MITHRAMYCIN (MTM) 2’ OXIMES” (University of Kentucky Research Foundation, priority 2023, published 2026)
